BindingDB's records for doi:10.1021/jm201198w (University of Kentucky, 2012)

Molecular target: Tyrosine-protein kinase SYK (Homo sapiens) (UniProt P43405)
Test: Inhibition of SYK

## Nc1nc(Nc2ccc([C@H]3CC[C@H](N4CCOCC4)CC3)cc2)nn1-c1ccccn1
  Ki: 0.22 µM
